# Patent US12521425B2, “Method of liver cancer treatment with safranal-based formulations” (priority 2019, dated 2026)
# Assays:
# [1] = test system: HepG2 cells; test: Western blotting of safranal-treated cells; format: cell-based
# Protocol: Western blotting. HepG2 cells were seeded at a density of 1×10^6 cells/100 mm plate and allowed to attach before being treated with safranal. Cells were treated with 500 μM of safranal for different time intervals (6-48 hours) for time-dependent experiments. Whole cell lysates were separated using 10-15% SDS polyacrylamide gel electrophoresis. Proteins were transferred onto PVDF membranes prior to incubation with various primary antibodies p-histone H3, Cdc2, Cyclin B1, CDC25B, p21, p53, H2AX, p-H2AX, TOP1, TDP1, Cleaved PARP1, PCNA, HDAC1, HDAC2, Cleaved Caspase-9, Cleaved Caspase-8, Bax, Bcl-2, GRP78, ATF6, IRE1, PERK, p-eIF2S1, […], and CHOP. GAPDH, β-actin, and α-Tubulin were used as loading controls. Protein bands were detected using WesternSure Chemiluminescent Substrate (LI-COR) and C-DiGit blot scanner (LI-COR).
# [2] = test system: HepG2 cells; test: Caspase-3 and 7 activities (Caspase-Glo 3/7); format: cell-based; settings: HepG2, 500 and 700 μM, 24 hours
# Protocol: Caspase-3 and 7 activities. HepG2 were seeded at a density of 5000 cells/well in a 96-well plate, and were allowed to attach. After which, cells were treated with 500 and 700 μM of safranal for 24 hours. Caspase-3 and 7 activities were detected using Caspase-Glo® 3/7 Assay kit according to manufacturer instructions (Promega). Luminescent signal was detected using GloMax Discover System (Promega).
# [3] = test system: HepG2 cells; test: Cell cycle analysis by flow cytometry; format: cell-based; settings: HepG2, 500 μM; for fraction of subG1 cells: DMSO control 0.9%
# Protocol: Cell cycle analysis. HepG2 cells were seeded at density of 3×10^6 cells per flask in complete growth medium and were allowed to attach overnight. After which, cells were treated with 500 μM of safranal for different time intervals (6-48 hours). At the indicated time intervals, cells were collected by incubation with trypsin and washed twice with PBS. Collected cells were fixed in 70% ethanol, treated with RNase and stained with propidium iodide. Cell cycle distribution was analyzed by flow cytometry in a FACS scan (Becton Dickenson, Germany).
# [4] = test system: HepG2 cells; test: Colony formation assay; format: cell-based; settings: HepG2, 30-100 μM for 24 hours
# Protocol: Colony formation. HepG2 cell were seeded at a density of 1000 cells/6-well plate, and left to incubate for 24 hours to allow attachment before being treated with different concentrations of safranal (30, 50, 100 μM) for 24 hours. After which, culture media containing safranal was replaced by fresh growth media without safranal. Culture media was replenished every 3 days, until visible colonies were formed. Colonies were fixed with absolute methanol, then stained with 0.5% crystal violet. Colonies were then imaged and analyzed using ImageJ plugin ColonyArea. Results are represented as the percent of area occupied by colonies. To confirm, an absorption-based method was carried out to validate results obtained from ImageJ. Briefly, stained colonies were treated with 10% acetic acid solution to dissolve the crystal violet stain. After which, 100 μL of each triplicate sample was transferred to a 96-well plate (in triplicates), and absorbance was measured using an Epoch microplate spectrophotometer (BioTek). *p≤0.05, **p≤0.001, ***p≤0.0001
# [5] = test system: HepG2 cells; test: RNAseq differential gene expression and GO enrichment; format: cell-based, Homo sapiens; settings: for genes significantly differentially expressed: vs untreated
# Protocol: RNAseq libraries construction and sequencing. Total RNA was isolated from three biological replicates of safranal treatments and untreated sample using RNeasy Mini Kit (Qiagen) following the manufacturer's instructions. The RNAseq libraries were prepared using TruSeq RNA sample prep kit (Illumina, Inc.) following the manufacturer's instructions. Briefly, TruSeq RNA sample prep kit converts the poly-A containing mRNA in total RNA into a cDNA library using poly-T oligo-attached magnetic bead selection. Following mRNA purification, the RNA is chemically fragmented prior to reverse transcription and cDNA generation. The fragmentation step results in an RNAseq library that includes inserts that range in size from approximately 100-400 bp. The average insert size in an Illumina TruSeq RNA sequencing library is approximately 200 bp. The cDNA fragments then go through an end repair process, the addition of a single ‘A’ base to the 3′ end and then ligation of the adapters. Then, the products are purified and enriched with PCR to create the final double stranded cDNA libraries. Finally, libraries quality control and quantification were performed with a Bioanalyzer Chip DNA 1000 series II (Agilent) and sequenced directly using the high-throughput Illumina HiSeq sequencing system (Illumina, Inc.).
# Alignment and analysis of Illumina reads against the reference genome. The data was processed through the standard RNAseq analysis pipeline at NYUAD. Briefly, alignments were performed using tophat2 v2.1.0 with the parameters “-no-novel-junctions” and “-G” when specifying the genome file. Following the tophat2 alignment stage, read counts were generated using HTseq count, and the counts were analyzed using the DESeq2 R library. The reference genome and GFF annotation correspond to the Homo sapiens GRCh38.p2 genome version. Venn diagram summarizing the gene expression analysis was constructed using the web-based tool InteractiVenn. Heatmaps were produced by Excel.
# Gene set enrichment analysis. Functional and gene set enrichment analysis of DEGs was performed using eXploring Genomic Relations (XGR) which is an open source tool for enrichment analysis with default parameters. The enrichment test is based on Hypergeometric distribution to identify the enriched gene ontology terms. The false positive rate was calculated by simulating a random set of genes of different sizes and found they were independent of the size of gene sets. Network analysis of over-representation GO terms was performed using the Biological Networks Gene Ontology tool (BiNGO) plug-in for Cytoscape. BiNGO retrieved the relevant GO Biological process annotation then tested for significance using the hypergeometric test and corrected multiple testing using Benjamini and Hochberg false discovery rate (FDR) correction ≤0.05.
structure (smiles),measurement,setting,value
CC1=C(C=O)C(C)(C)CC=C1 [safranal],HDAC1 expression,"[1]; HepG2, 500 μM",inhibited
same,HDAC2 expression,"[1]; HepG2, 500 μM",remained unchanged
same,Cdc2 expression,"[1]; HepG2, 500 μM, 6-48 hours",inhibit Cdc2 expression starting at 12 hours
same,H2AX expression,"[1]; HepG2, 500 μM, 6-48 hours",remained unchanged
same,expression of Cyclin B1 and CDC25B,"[1]; HepG2, 500 μM, 6-48 hours",inhibiting expression of Cyclin B1 and CDC25B starting at 6 hours
same,expression of phosphorylated histone H3,"[1]; HepG2, 500 μM, 6-48 hours",inhibited dramatically
same,p-H2AX (DNA damage marker),"[1]; HepG2, 500 μM, 6-48 hours",observed starting at 6 hours
same,proliferation marker PCNA,"[1]; HepG2, 500 μM, 6-48 hours",inhibition
same,CHOP/DDIT3 and phosphorylated eIF2α,"[1]; HepG2, 500 μM, up to 48 hours",upregulated
same,expression of p21,"[1]; HepG2, 500 μM, up to 48 hours",inhibited
same,expressions of GRP78 and of p27,"[1]; HepG2, 500 μM, up to 48 hours",induced
same,"main sensors of UPR, PERK, MEL and ATF6","[1]; HepG2, 500 μM, up to 48 hours",general upregulation trend
same,TDP1 level,"[1]; HepG2, 6, 12, 24, 48 hours",lower levels
same,TOP1 level,"[1]; HepG2, 6, 12, 24, 48 hours",higher levels
same,caspase-8 cleavage,"[1]; HepG2, time-based",cleaved starting at 24 hours
same,caspase-9 cleavage,"[1]; HepG2, time-based",cleaved starting at 12 hours
same,ratio of Bax to Bcl-2,"[1]; HepG2, time-based",increased
same,activity of executioner caspases-3 and -7,[2],increased
same,cell cycle distribution,[3]; 6 and 12 hours post treatment,G2/M phase arrest
same,cell cycle distribution,[3]; 24 hours,S-phase arrest
same,fraction of subG1 cells,[3]; after 24 hours,6.3%
same,fraction of subG1 cells,[3]; after 48 hours,26.2%
same,colony formation,[4],inhibited colony formation of HepG2 cells in a dose-dependent manner
same,genes downregulated,[5]; 12 hours,"3,769 genes"
same,genes upregulated,[5]; 12 hours,"2,812 genes"
same,genes significantly differentially expressed,[5]; 12 hours,"6,581 genes"
same,genes downregulated,[5]; 24 hours,"5,331 genes"
same,genes upregulated,[5]; 24 hours,"2,458 genes"
same,genes significantly differentially expressed,[5]; 24 hours,"7,789 genes"
same,"N, GO term Cell migration",[5]; Downregulated 12 h,28
same,"N, GO term Growth",[5]; Downregulated 12 h,27
same,"N, GO term Wound healing",[5]; Downregulated 12 h,25
same,"N, GO term Cell adhesion",[5]; Downregulated 24 h,149
same,"N, GO term Signal transduction",[5]; Downregulated 24 h,327
same,"N, GO term Wound healing",[5]; Downregulated 24 h,32
same,"N, GO term Cellular Response to DNA damage stimulus",[5]; Upregulated 12 h,48
same,"N, GO term Proteasome-mediated ubiquitin-dependent protein catabolic process",[5]; Upregulated 12 h,47
same,"N, GO term Response to unfolded protein",[5]; Upregulated 12 h,14
same,"N, GO term Apoptotic mitochondrial changes",[5]; Upregulated 24 h,6
same,"N, GO term Proteasome-mediated ubiquitin-dependent protein catabolic process",[5]; Upregulated 24 h,50
same,"N, GO term Response to unfolded protein",[5]; Upregulated 24 h,12
